Six molecules from patent US20160168724A1, “POLYVINYLBUTYRAL COATING CONTAINING THIOL CORROSION INHIBITORS” (The Boeing Company, priority 2014, published 2016) can be followed below.

The assay can be described thus: Linear sweep voltammetry with rotating disc electrode, inhibitors in electrolyte solution. The conditions noted are these: for Current (A) @ −800 mV: 10 ppm inhibitor solution in 5% NaCl-PBS pH 7, copper rotating disc electrode 1000 rpm, LSV; for IE (inhibitor efficiency, Equation 1): 10 ppm inhibitor solution, from current at -800 mV versus blank. As to the method: Linear sweep voltammetry (LSV) and chronoamperometry were used to evaluate the performance of the thio-containing corrosion inhibitors as electroactive cathodic-thio compounds. The LSV experiments were performed with a rotating disc electrode (RDE). The rotating disc electrode technique provides certain benefits in measurement sensitivity because the technique indicates current at steady state with a kinetic flow over the electrode rather than a static measurement in solution (FIG. 1).
Inhibitor performance was measured based on the ability of the compound to prevent the oxygen reduction reaction in electrolyte using a rotating disc electrode. If current values were closer to zero then the inhibitor was considered to be appropriate because the oxygen reduction reaction, which is an indication of corrosion, was sequestered or stopped. Solutions of known concentration (e.g., containing 10 ppm inhibitor) were used to compared inhibitors. Inhibitor efficiency (IE), is calculated using Equation 1 (IE corrects for contributions not attributable to the inhibitor (e.g., electrolyte)).
Inhibitor Efficiency=(iinhibitor−iblank)/iblank (Equation 1)
Performance of different inhibitors (10 ppm solutions) was evaluated by measuring current value (A) at −800 mV and determining inhibitor efficiency, the results of which are shown in Table 5.
A 5% (wt/wt) sodium chloride solution (that is, electrolyte system A of Table 7) was selected to simulate a highly corrosive environment and potentially accelerate the corrosion. The electrolyte was buffered to eliminate changes in pH from effecting inhibitor performance measurements. A pH of 7 was selected because it was similar to seawater.
The 5% (wt/wt) (0.9 M) sodium chloride electrolyte solution was generated by adding reagent grade sodium chloride to <18 M·cm resistivity to deionized water (52.6 gm NaCl to 1 liter water). The solution was then buffered to neutral pH 7 with phosphate buffered saline tablets from Sigma Aldrich-(P4417-100TAB), 1 tablet per 200 ml of solution Inhibitors were dissolved in an 5% sodium chloride electrolyte buffered with phosphate buffered saline to maintain the pH at 7. Ten parts per million (10 ppm) solutions were generated by taking an aliquot of solutions with a higher known inhibitor concentration and diluting to make a 10 ppm solution. In most cases the higher concentration target was 50 ppm. The initial solutions were generated by adding 0.050 gm of inhibitor in a 5% NaCl buffered electrolyte in a one liter volumetric flask. Not all of the inhibitor dissolved, so the solution was filtered to calculate the solubility and the actual concentration. The solutions were stirred overnight with a stir bar and then filtered using a pre-weighed, 4.7 cm diameter, 1.0 micron pore size glass fiber filters (Whatman Grade GF/B 1821-047) and a Millipore glass filter funnel. The glass filter and clamp funnel was an improvement to previous filter methods that utilized a Buchner funnel and paper filters. After the filtrate was collected, the funnel and filter paper were rinsed thoroughly with deionized water to ensure that no electrolyte salts were trapped in the filter and that residual solids on the sides of the filter funnel were collected. The filter with solids was dried over night in an approximately 120° C. oven, allowed to come to room temperature in a desiccator, and weighed. The actual solution concentration was calculated based on the actual inhibitor dissolved. Concentration calculations also accounted for residual salts that are sometimes still present in the filter. These were measured by running a blank. An aliquot was taken of the 50 ppm solution and a final 10 ppm solution generated. […]

Consider `Sc1nsc(S)n1` [1,2,4 DMcT, 1,2,4-Thiadiazole-3,5-dithiol], for which the “Current (A) @ −800 mV” value was −1.53 × 10^−4 A and the “IE (inhibitor efficiency, Equation 1)” value stood at 0.70.
Taken in the same sequence, the figures for `Sc1nnc([S][Al]([S]c2nnc(S)s2)[S]c2nnc(S)s2)s1` [1:3AlDMcT (acid), [Al:2,5-dimercapto-1,3,4-thiadiazole (1:3)] (acid)] were −2.83 × 10^−4 A and 0.44.
For `Sc1nnc([S][Al]([S]c2nnc(S)s2)[S]c2nnc(S)s2)s1` [1:3AlDMcT, [Al:2,5-dimercapto-1,3,4-thiadiazole (1:3)]], the “Current (A) @ −800 mV” value is −2.25 × 10^−4 A and the “IE (inhibitor efficiency, Equation 1)” value turned out to be 0.55.
Taken in the same sequence, the figures for `N1=C2SSc3nnc(s3)SSC(=N1)S2` [BDTD, Bis-[2,5-dithio-1,3,4-thiadiazole]] were −3.00 × 10^−4 A and 0.40.
In the same order, the values of `Sc1nnc(SSc2nnc(S)s2)s1` [Vanlube 829, 5,5′-Dithiobis(1,3,4-Thiadiazole-2(3H)-thione)] are −2.68 × 10^−4 A and 0.47.
Taken in the same sequence, the figures for “[Al:2,5-dimercapto-1,3,4-thiadiazole (3:1)] [3:1 AlDMcT]” were −2.59 × 10^−4 A and 0.49.
